From patent publication US20070166415A1, “Safe medicine for treating and preventing cancer and method of use” (priority 2006, published 2007)

Columns and labels:
[1] = dog, in vivo
Source text: Twenty normal adult dogs which weight approximately 10 kg[…] used in experiments.
Most deaths were caused by cardiac dysfunction.

[2] = system: salmonella typhimurium TA97; assay: Salmonella mutagenicity test, TA97; assay type: cell-based
Method: (§1) Methods for detecting carcinogens and mutagens with the salmonellia mutagenicity test are highly efficient in detecting carcinogens and mutagens. Major carcinogens tested have been detected as mutagens. Salmonella mutagenicity assay is very sensitive and simply test for detecting mutagens and carcinogens.
(§2) Mutagenicity assays were carried out at least in triplicate.

[3] = system: salmonella typhimurium TA98; assay: Salmonella mutagenicity test, TA98; assay type: cell-based
Method: as §1, §2

[4] = system: salmonella typhimurium TA100; assay: Salmonella mutagenicity test, TA100; assay type: cell-based
Method: as §1, §2

[5] = Metabolism (organ and blood radioactivity) of [^3H]-HHT in P388 mice; assay type: in vivo
Method: Animals: Adult DBA/2J male mice, 6 to 8 weeks old. All animals weighed approximately 25 g when used in experiments. Each member of which received identical dosed (i.p.) of HHT. Tumor: P388 leukemic cells induced in mice by inoculation with L1210 or P388 leukemic cells (1.0×10^5). After P388 induced in mice 5 days, 1 mg/kg of [^3H]-HHT (100 μC/mg) was injected to mice. […] Mice were killed at 1, 3, 6 and 24 hours after injection of [^3H]-HHT. The key data of HHT in metabolism process are determined counts per minute (CPM) of [^3H]-HHT in organs. CPM is determined by liquid scintillation counting (LSC). The methods of LSC combined with radioactive of [^3H]-HHT can be determined using a tracer of HHT in organs. After killed animals, organs and blood were obtained from P388 mice. […] Other processes are similar to the standard method.

Q: Which “reversibility of toxicities observed” value [1] does the source give for `COC(=O)C[C@](O)(CCCC(C)(C)O)C(=O)O[C@@H]1C(OC)=C[C@]23CCCN2CCc2cc4c(cc2[C@H]13)OCO4` [HHT, Homoharringtonine] here?
A: completely reversible upon discontinuation of treatment

Q: And the “Number of His^+revertants/plate” value ([2]; TA97 +S, 0.1 μg/plate)?
A: 145 ± 14 revertants/plate

Q: And the “Number of His^+revertants/plate” value ([2]; TA97 +S, 1 μg/plate)?
A: 150 ± 14 revertants/plate

Q: And the “Number of His^+revertants/plate” value ([2]; TA97 +S, 10 μg/plate)?
A: 165 ± 16 revertants/plate

Q: What about the “Number of His^+revertants/plate” value ([2]; TA97 +S, 100 μg/plate) of the same compound?
A: 160 ± 17 revertants/plate

Q: And the “Number of His^+revertants/plate” value ([2]; TA97 −S, 0.1 μg/plate)?
A: 120 ± 10 revertants/plate

Q: And the “Number of His^+revertants/plate” value ([2]; TA97 −S, 1 μg/plate)?
A: 130 ± 11 revertants/plate

Q: What about the “Number of His^+revertants/plate” value ([2]; TA97 −S, 10 μg/plate) of the same compound?
A: 160 ± 16 revertants/plate

Q: What about the “Number of His^+revertants/plate” value ([2]; TA97 −S, 100 μg/plate) of the same compound?
A: 150 ± 16 revertants/plate

Q: What about the “Number of His^+revertants/plate” value ([3]; TA98 +S, 0.1 μg/plate) of the same compound?
A: 34 ± 4 revertants/plate

Q: And the “Number of His^+revertants/plate” value ([3]; TA98 +S, 1 μg/plate)?
A: 32 ± 4 revertants/plate

Q: And the “Number of His^+revertants/plate” value ([3]; TA98 +S, 10 μg/plate)?
A: 36 ± 3 revertants/plate

Q: And the “Number of His^+revertants/plate” value ([3]; TA98 +S, 100 μg/plate)?
A: 34 ± 4 revertants/plate

Q: And the “Number of His^+revertants/plate” value ([3]; TA98 −S, 0.1 μg/plate)?
A: 29 ± 3 revertants/plate

Q: What about the “Number of His^+revertants/plate” value ([3]; TA98 −S, 1 μg/plate) of the same compound?
A: 30 ± 3 revertants/plate

Q: And the “Number of His^+revertants/plate” value ([3]; TA98 −S, 10 μg/plate)?
A: 38 ± 4 revertants/plate

Q: And the “Number of His^+revertants/plate” value ([3]; TA98 −S, 100 μg/plate)?
A: 32 ± 4 revertants/plate

Q: What about the “Number of His^+revertants/plate” value ([4]; TA100 +S, 0.1 μg/plate) of the same compound?
A: 158 revertants/plate

Q: What about the “Number of His^+revertants/plate” value ([4]; TA100 +S, 1 μg/plate) of the same compound?
A: 152 revertants/plate

Q: What about the “Number of His^+revertants/plate” value ([4]; TA100 +S, 10 μg/plate) of the same compound?
A: 165 revertants/plate

Q: What about the “Number of His^+revertants/plate” value ([4]; TA100 +S, 100 μg/plate) of the same compound?
A: 160 revertants/plate

Q: And the “Number of His^+revertants/plate” value ([4]; TA100 −S, 0.1 μg/plate)?
A: 148 ± 12 revertants/plate

Q: And the “Number of His^+revertants/plate” value ([4]; TA100 −S, 1 μg/plate)?
A: 140 ± 13 revertants/plate

Q: And the “Number of His^+revertants/plate” value ([4]; TA100 −S, 10 μg/plate)?
A: 162 ± 17 revertants/plate

Q: And the “Number of His^+revertants/plate” value ([4]; TA100 −S, 100 μg/plate)?
A: 158 ± 15 revertants/plate

Q: And the “CPM of [^3H]-HHT, Bone” value ([5]; 1 hour after 1 mg/kg i.p.)?
A: 500 CMP/mg organ

Q: What about the “CPM of [^3H]-HHT, Brain” value ([5]; 1 hour after 1 mg/kg i.p.) of the same compound?
A: 499 CMP/mg organ

Q: What about the “CPM of [^3H]-HHT, Contents of intestine” value ([5]; 1 hour after 1 mg/kg i.p.) of the same compound?
A: 3323 CMP/mg organ

Q: What about the “CPM of [^3H]-HHT, Contents of stomach” value ([5]; 1 hour after 1 mg/kg i.p.) of the same compound?
A: 6821 CMP/mg organ

Q: What about the “CPM of [^3H]-HHT, Heart” value ([5]; 1 hour after 1 mg/kg i.p.) of the same compound?
A: 1403 CMP/mg organ

Q: What about the “CPM of [^3H]-HHT, Intestine” value ([5]; 1 hour after 1 mg/kg i.p.) of the same compound?
A: 1638 CMP/mg organ

Q: What about the “CPM of [^3H]-HHT, Kidney” value ([5]; 1 hour after 1 mg/kg i.p.) of the same compound?
A: 6501 CMP/mg organ

Q: And the “CPM of [^3H]-HHT, Liver” value ([5]; 1 hour after 1 mg/kg i.p.)?
A: 4145 CMP/mg organ

Q: And the “CPM of [^3H]-HHT, Lung” value ([5]; 1 hour after 1 mg/kg i.p.)?
A: 2100 CMP/mg organ

Q: And the “CPM of [^3H]-HHT, Spleen” value ([5]; 1 hour after 1 mg/kg i.p.)?
A: 2828 CMP/mg organ

Q: What about the “CPM of [^3H]-HHT, Stomach” value ([5]; 1 hour after 1 mg/kg i.p.) of the same compound?
A: 1626 CMP/mg organ

Q: What about the “CPM of [^3H]-HHT, Bone” value ([5]; 3 hours after 1 mg/kg i.p.) of the same compound?
A: 560 CMP/mg organ

Q: What about the “CPM of [^3H]-HHT, Brain” value ([5]; 3 hours after 1 mg/kg i.p.) of the same compound?
A: 646 CMP/mg organ

Q: And the “CPM of [^3H]-HHT, Contents of intestine” value ([5]; 3 hours after 1 mg/kg i.p.)?
A: 7215 CMP/mg organ

Q: And the “CPM of [^3H]-HHT, Contents of stomach” value ([5]; 3 hours after 1 mg/kg i.p.)?
A: 84375 CMP/mg organ

Q: What about the “CPM of [^3H]-HHT, Heart” value ([5]; 3 hours after 1 mg/kg i.p.) of the same compound?
A: 1800 CMP/mg organ

Q: What about the “CPM of [^3H]-HHT, Intestine” value ([5]; 3 hours after 1 mg/kg i.p.) of the same compound?
A: 3288 CMP/mg organ

Q: And the “CPM of [^3H]-HHT, Kidney” value ([5]; 3 hours after 1 mg/kg i.p.)?
A: 3121 CMP/mg organ

Q: And the “CPM of [^3H]-HHT, Liver” value ([5]; 3 hours after 1 mg/kg i.p.)?
A: 6718 CMP/mg organ

Q: What about the “CPM of [^3H]-HHT, Lung” value ([5]; 3 hours after 1 mg/kg i.p.) of the same compound?
A: 2427 CMP/mg organ

Q: And the “CPM of [^3H]-HHT, Spleen” value ([5]; 3 hours after 1 mg/kg i.p.)?
A: 2426 CMP/mg organ

Q: And the “CPM of [^3H]-HHT, Stomach” value ([5]; 3 hours after 1 mg/kg i.p.)?
A: 2321 CMP/mg organ

Q: And the “CPM of [^3H]-HHT, Bone” value ([5]; 6 hours after 1 mg/kg i.p.)?
A: 505 CMP/mg organ

Q: And the “CPM of [^3H]-HHT, Brain” value ([5]; 6 hours after 1 mg/kg i.p.)?
A: 793 CMP/mg organ

Q: And the “CPM of [^3H]-HHT, Contents of intestine” value ([5]; 6 hours after 1 mg/kg i.p.)?
A: 6250 CMP/mg organ

Q: What about the “CPM of [^3H]-HHT, Contents of stomach” value ([5]; 6 hours after 1 mg/kg i.p.) of the same compound?
A: 100719 CMP/mg organ

Q: What about the “CPM of [^3H]-HHT, Heart” value ([5]; 6 hours after 1 mg/kg i.p.) of the same compound?
A: 1193 CMP/mg organ

Q: What about the “CPM of [^3H]-HHT, Intestine” value ([5]; 6 hours after 1 mg/kg i.p.) of the same compound?
A: 2475 CMP/mg organ

Q: And the “CPM of [^3H]-HHT, Kidney” value ([5]; 6 hours after 1 mg/kg i.p.)?
A: 3501 CMP/mg organ

Q: What about the “CPM of [^3H]-HHT, Liver” value ([5]; 6 hours after 1 mg/kg i.p.) of the same compound?
A: 4109 CMP/mg organ

Q: And the “CPM of [^3H]-HHT, Lung” value ([5]; 6 hours after 1 mg/kg i.p.)?
A: 1788 CMP/mg organ

Q: What about the “CPM of [^3H]-HHT, Spleen” value ([5]; 6 hours after 1 mg/kg i.p.) of the same compound?
A: 2198 CMP/mg organ

Q: What about the “CPM of [^3H]-HHT, Stomach” value ([5]; 6 hours after 1 mg/kg i.p.) of the same compound?
A: 3703 CMP/mg organ
